Assay results taken from ChEMBL document CHEMBL3885881, “DrugMatrix”.

Organism: Rattus norvegicus
Test: DrugMatrix - Regimen: Daily Repeat
Type: toxicity, organism-based, Sprague-Dawley
Design: regimen Daily Repeat, gender Male, age 6-8 weeks
Conditions: in vivo, sc, route subcutaneous, […]; for BASOPHIL / EOSINOPHIL / ERYTHROCYTE COUNT / HEMATOCRIT / HEMOGLOBIN / LEUKOCYTE COUNT / LYMPHOCYTE / MEAN CORPUSCULAR HEMOGLOBIN / MEAN CORPUSCULAR HEMOGLOBIN CONCENTRATION / MEAN CORPUSCULAR VOLUME / MONOCYTE / NEUTROPHIL / PLATELET COUNT: tissue Blood; for ALANINE AMINOTRANSFERASE / ALBUMIN / ALKALINE PHOSPHATASE / ASPARTATE AMINOTRANSFERASE / BLOOD UREA NITROGEN / CARBON DIOXIDE / CHLORIDE / CHOLESTEROL / CREATININE / GLUCOSE / LACTATE DEHYDROGENASE / LIPASE / PHOSPHORUS / POTASSIUM / TOTAL BILIRUBIN / TOTAL PROTEIN / URIC ACID: tissue Plasma
[1] = 4 mg/kg, 72 h, dose level Low, time 3 day
[2] = 4 mg/kg, 120 h, dose level Low, time 5 day
[3] = 36 mg/kg, 72 h, dose level High, time 3 day
[4] = 36 mg/kg, 120 h, dose level High, time 5 day

In the case of `Nc1c2ccccc2nc2ccccc12` [AMINACRINE], the BASOPHIL [1] is reported as 0%, the EOSINOPHIL [1] is reported as 0.67% and the “ERYTHROCYTE COUNT” value [1] is reported as 6.9 x10E6/uL. The HEMATOCRIT [1] was 42.07%, the HEMOGLOBIN [1] was 14.07 G/DL and the “LEUKOCYTE COUNT” value [1] was 11.4 x10E3/uL. For the same compound, the LYMPHOCYTE [1] was 65.33%, the “MEAN CORPUSCULAR HEMOGLOBIN” value [1] was 20.43 pg and the “MEAN CORPUSCULAR HEMOGLOBIN CONCENTRATION” value [1] was 33.4 G/DL. For the same compound, the “MEAN CORPUSCULAR VOLUME” value [1] was 61.1 fL, the MONOCYTE [1] was 8.67% and the NEUTROPHIL [1] was 25.67%. The “PLATELET COUNT” value [1] was 1093.67 x10E3/uL, the “ALANINE AMINOTRANSFERASE” value [1] was 44 u/L and the ALBUMIN [1] was 3.9 G/DL. For the same compound, the “ALKALINE PHOSPHATASE” value [1] was 311.67 u/L, the “ASPARTATE AMINOTRANSFERASE” value [1] was 81 u/L and the “BLOOD UREA NITROGEN” value [1] was 14.67 mg/dL. The “CARBON DIOXIDE” value [1] was 22.33 mmol/L, the CHLORIDE [1] was 106 MEQ/L and the CHOLESTEROL [1] was 68.33 mg/dL. The CREATININE [1] was 0.3 mg/dL, the GLUCOSE [1] was 144.67 mg/dL and the “LACTATE DEHYDROGENASE” value [1] was 297.67 u/L. For the same compound, the LIPASE [1] was 8.67 u/L, the PHOSPHORUS [1] was 9.93 mg/dL and the POTASSIUM [1] was 5.93 MEQ/L. For the same compound, the “TOTAL BILIRUBIN” value [1] was 0.1 mg/dL, the “TOTAL PROTEIN” value [1] was 6 G/DL and the “URIC ACID” value [1] was 0.93 mg/dL. The BASOPHIL [2] was 0.33%, the EOSINOPHIL [2] was 0% and the “ERYTHROCYTE COUNT” value [2] was 6.82 x10E6/uL. For the same compound, the HEMATOCRIT [2] was 42.2%, the HEMOGLOBIN [2] was 13.8 G/DL and the “LEUKOCYTE COUNT” value [2] was 13.23 x10E3/uL. The LYMPHOCYTE [2] was 62%, the “MEAN CORPUSCULAR HEMOGLOBIN” value [2] was 20.2 pg and the “MEAN CORPUSCULAR HEMOGLOBIN CONCENTRATION” value [2] was 32.67 G/DL. The “MEAN CORPUSCULAR VOLUME” value [2] was 61.87 fL, the MONOCYTE [2] was 3% and the NEUTROPHIL [2] was 34.33%. The “PLATELET COUNT” value [2] was 1028 x10E3/uL, the “ALANINE AMINOTRANSFERASE” value [2] was 47 u/L and the ALBUMIN [2] was 3.4 G/DL. For the same compound, the “ALKALINE PHOSPHATASE” value [2] was 316 u/L, the “ASPARTATE AMINOTRANSFERASE” value [2] was 78.33 u/L and the “BLOOD UREA NITROGEN” value [2] was 17.33 mg/dL. For the same compound, the “CARBON DIOXIDE” value [2] was 22.67 mmol/L, the CHLORIDE [2] was 100.33 MEQ/L and the CHOLESTEROL [2] was 66.33 mg/dL. For the same compound, the CREATININE [2] was 0.3 mg/dL, the GLUCOSE [2] was 141.67 mg/dL and the “LACTATE DEHYDROGENASE” value [2] was 188.67 u/L. The LIPASE [2] was 8 u/L, the PHOSPHORUS [2] was 9.9 mg/dL and the POTASSIUM [2] was 5.47 MEQ/L. For the same compound, the “TOTAL BILIRUBIN” value [2] was 0.1 mg/dL, the “TOTAL PROTEIN” value [2] was 6.13 G/DL and the “URIC ACID” value [2] was 0.9 mg/dL. The BASOPHIL [3] was 0.33%, the EOSINOPHIL [3] was 0.33% and the “ERYTHROCYTE COUNT” value [3] was 6.95 x10E6/uL. The HEMATOCRIT [3] was 42.07%, the HEMOGLOBIN [3] was 14.1 G/DL and the “LEUKOCYTE COUNT” value [3] was 8.8 x10E3/uL. The LYMPHOCYTE [3] was 76%, the “MEAN CORPUSCULAR HEMOGLOBIN” value [3] was 20.3 pg and the “MEAN CORPUSCULAR HEMOGLOBIN CONCENTRATION” value [3] was 33.47 G/DL. For the same compound, the “MEAN CORPUSCULAR VOLUME” value [3] was 60.57 fL, the MONOCYTE [3] was 3% and the NEUTROPHIL [3] was 20.33%. For the same compound, the “PLATELET COUNT” value [3] was 1177.67 x10E3/uL, the “ALANINE AMINOTRANSFERASE” value [3] was 44.33 u/L and the ALBUMIN [3] was 3.27 G/DL. The “ALKALINE PHOSPHATASE” value [3] was 226.33 u/L, the “ASPARTATE AMINOTRANSFERASE” value [3] was 101.67 u/L and the “BLOOD UREA NITROGEN” value [3] was 17 mg/dL. The “CARBON DIOXIDE” value [3] was 22 mmol/L, the CHLORIDE [3] was 106 MEQ/L and the CHOLESTEROL [3] was 62 mg/dL. The CREATININE [3] was 0.3 mg/dL, the GLUCOSE [3] was 151 mg/dL and the “LACTATE DEHYDROGENASE” value [3] was 142.33 u/L. It also gave an LIPASE [3] of 7.67 u/L, a PHOSPHORUS [3] of 9.3 mg/dL and a POTASSIUM [3] of 6 MEQ/L. The “TOTAL BILIRUBIN” value [3] was 0.1 mg/dL, the “TOTAL PROTEIN” value [3] was 6.07 G/DL and the “URIC ACID” value [3] was 1.17 mg/dL. For the same compound, the BASOPHIL [4] was 0%, the EOSINOPHIL [4] was 0% and the “ERYTHROCYTE COUNT” value [4] was 6.75 x10E6/uL. For the same compound, the HEMATOCRIT [4] was 41.37%, the HEMOGLOBIN [4] was 13.1 G/DL and the “LEUKOCYTE COUNT” value [4] was 11.17 x10E3/uL. The LYMPHOCYTE [4] was 59.67%, the “MEAN CORPUSCULAR HEMOGLOBIN” value [4] was 19.43 pg and the “MEAN CORPUSCULAR HEMOGLOBIN CONCENTRATION” value [4] was 31.73 G/DL. The “MEAN CORPUSCULAR VOLUME” value [4] was 61.3 fL, the MONOCYTE [4] was 4.33% and the NEUTROPHIL [4] was 35.67%. The “PLATELET COUNT” value [4] was 1310.67 x10E3/uL, the “ALANINE AMINOTRANSFERASE” value [4] was 40.67 u/L and the ALBUMIN [4] was 2.83 G/DL. For the same compound, the “ALKALINE PHOSPHATASE” value [4] was 304.33 u/L, the “ASPARTATE AMINOTRANSFERASE” value [4] was 111 u/L and the “BLOOD UREA NITROGEN” value [4] was 17.33 mg/dL. The “CARBON DIOXIDE” value [4] was 22 mmol/L, the CHLORIDE [4] was 101.67 MEQ/L and the CHOLESTEROL [4] was 48 mg/dL. The CREATININE [4] was 0.3 mg/dL, the GLUCOSE [4] was 157.67 mg/dL and the “LACTATE DEHYDROGENASE” value [4] was 113.33 u/L. The LIPASE [4] was 7 u/L, the PHOSPHORUS [4] was 9 mg/dL and the POTASSIUM [4] was 5.17 MEQ/L. For the same compound, the “TOTAL BILIRUBIN” value [4] was 0.1 mg/dL, the “TOTAL PROTEIN” value [4] was 5.5 G/DL and the “URIC ACID” value [4] was 0.97 mg/dL.
